# Results published in the supplement of paper PMC10307832.
# Experiments:
# Experiment in all cases: relative viability (nuclei count vs DMSO), 5 days (fraction); higher = more cells survive
# [1] = compound: Cc1ccc(F)c(NC(=O)Nc2ccc(-c3cccc4[nH]nc(N)c34)cc2)c1 [Linifanib] + Nc1nc2[nH]cc(CCc3ccc(C(=O)N[C@@H](CCC(=O)O)C(=O)O)cc3)c2c(=O)[nH]1 [Pemetrexed] (partner 0.2 µM)
# Procedure, shortened: (§1)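 Cells from lung cancer lines were seeded into 1536-well plates and, one day later, dosed by pin tool. Treatments were either a single drug or a fixed dose of an anchor drug with five library-drug doses (not always all listed) in √10 steps. After 5 days, nuclei were stained in a one-step fixation (final 0.05% Triton X-100, 1% formaldehyde, 1 ug/ml Hoechst) and counted on 4× images, and relative viability is the treated-to-vehicle nuclei ratio, as the median of duplicate plates.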
# [2] = compound: Cc1ccc(F)c(NC(=O)Nc2ccc(-c3cccc4[nH]nc(N)c34)cc2)c1 [Linifanib] + Cc1nc(Nc2ncc(C(=O)Nc3c(C)cccc3Cl)s2)cc(N2CCN(CCO)CC2)n1 [Dasatinib] (partner 0.075 µM)
# Procedure, shortened: as §1
# [3] = compound: Cc1ccc(F)c(NC(=O)Nc2ccc(-c3cccc4[nH]nc(N)c34)cc2)c1 [Linifanib] + COc1cccc2cc(-c3nc([C@H]4CC[C@H](C(=O)O)CC4)n4ncnc(N)c34)[nH]c12 [OSI-027] (partner 0.5 µM)
# Procedure, shortened: as §1
# [4] = compound: Cc1ccc(F)c(NC(=O)Nc2ccc(-c3cccc4[nH]nc(N)c34)cc2)c1 [Linifanib] + C[C@@H](Oc1cc(-c2cnn(C3CCNCC3)c2)cnc1N)c1c(Cl)ccc(F)c1Cl [Crizotinib] (partner 1 µM)
# Procedure, shortened: as §1
# [5] = compound: Cc1ccc(F)c(NC(=O)Nc2ccc(-c3cccc4[nH]nc(N)c34)cc2)c1 [Linifanib] + CC(=O)c1c(C)c2cnc(Nc3ccc(N4CCNCC4)cn3)nc2n(C2CCCC2)c1=O [Palbociclib] (partner 0.5 µM)
# Procedure, shortened: as §1
# [6] = compound: Cc1ccc(F)c(NC(=O)Nc2ccc(-c3cccc4[nH]nc(N)c34)cc2)c1 [Linifanib] + COc1cc2c(Oc3ccc(NC(=O)C4(C(=O)Nc5ccc(F)cc5)CC4)cc3F)ccnc2cc1OCCCN1CCOCC1 [Foretinib] (partner 0.25 µM)
# Procedure, shortened: as §1
Cell Line,relative viability ([1]; first compound 0.03162 µM),relative viability ([1]; first compound 0.1 µM),relative viability ([1]; first compound 0.3162 µM),relative viability ([2]; first compound 0.03162 µM),relative viability ([2]; first compound 0.1 µM),relative viability ([2]; first compound 0.3162 µM),relative viability ([3]; first compound 0.03162 µM),relative viability ([3]; first compound 0.1 µM),relative viability ([3]; first compound 0.3162 µM),relative viability ([4]; first compound 0.03162 µM),relative viability ([4]; first compound 0.1 µM),relative viability ([4]; first compound 0.3162 µM),relative viability ([5]; first compound 0.03162 µM),relative viability ([5]; first compound 0.1 µM),relative viability ([5]; first compound 0.3162 µM),relative viability ([6]; first compound 0.03162 µM),relative viability ([6]; first compound 0.1 µM),relative viability ([6]; first compound 0.3162 µM)
NCI-H2023,0.259,0.275,0.232,0.543,0.681,0.565,0.426,0.539,0.37,0.679,0.774,0.544,0.357,0.415,0.345,0.807,0.806,0.836
NCI-H2087,0.661,0.726,0.529,1.12,1.22,0.787,0.643,0.585,0.563,0.602,1.03,0.655,0.219,0.285,0.269,1.08,1.26,0.993
NCI-H322M,0.598,0.589,0.65,0.253,0.256,0.216,0.629,0.584,0.503,0.954,0.982,0.828,0.488,0.487,0.441,0.939,1.06,1.02
EPLC-272H,0.332,0.358,0.339,0.324,0.418,0.51,0.26,0.327,0.29,0.813,0.913,0.826,0.333,0.338,0.294,0.643,0.657,0.556
HARA,0.258,0.261,0.306,0.234,0.335,0.285,0.569,0.571,0.498,1.09,1.18,0.975,0.274,0.244,0.303,1.09,1.06,0.835
EMC-BAC-2,0.456,0.448,0.472,0.341,0.347,0.406,0.439,0.361,0.375,0.837,0.791,0.733,0.542,0.562,0.531,1.02,1.05,1.03
LCLC-97TM1,0.202,0.16,0.146,0.887,1.04,0.678,0.718,0.624,0.563,0.43,0.456,0.362,0.212,0.243,0.196,0.865,0.961,0.852
NCI-H1944,0.678,0.705,0.675,0.204,0.215,0.216,0.405,0.462,0.409,1.1,1.12,0.997,0.334,0.353,0.35,0.928,0.889,0.876
NCI-H2405,1.06,1.11,1.04,0.212,0.199,0.219,0.667,0.66,0.624,0.855,0.86,0.85,0.56,0.532,0.513,1.06,1.04,1.07
NCI-H1975,0.293,0.317,0.278,0.396,0.367,0.344,0.675,0.753,0.706,1,1.02,0.984,0.6,0.783,0.551,0.892,1.01,1.02
HCC-78,0.944,0.926,0.85,0.441,0.539,0.37,0.391,0.396,0.344,0.373,0.376,0.319,0.513,0.433,0.447,0.543,0.501,0.542
CAL-12T,1.2,1.27,1.18,0.457,0.508,0.343,0.761,0.736,0.73,0.835,0.692,0.698,0.485,0.446,0.419,1.14,1.21,1.14
NCI-H23,0.66,0.882,0.761,0.736,0.928,0.84,0.577,0.75,0.572,0.555,0.463,0.506,0.486,0.57,0.487,1.28,0.964,1.15
NCI-H2170,0.265,0.276,0.297,0.662,0.611,0.579,0.655,0.747,0.732,1.33,1.35,1.11,0.385,0.421,0.402,0.792,1.01,0.99
NCI-H1666,0.943,0.876,0.892,0.856,0.833,0.779,0.882,0.903,0.784,0.971,0.989,0.966,0.649,0.647,0.693,0.923,0.969,0.998
NCI-H650,0.899,1.15,0.899,0.461,0.451,0.444,0.493,0.584,0.514,0.742,0.665,0.73,0.37,0.308,0.376,1,1.03,0.994
NCI-H520,0.629,0.696,0.635,0.19,0.206,0.208,0.271,0.313,0.3,0.799,1.09,0.757,0.22,0.216,0.238,0.741,1.01,0.708
